Assays:
Swiss albino mice = conditions: both, mouse, in vivo, po, 15 days
Description: Acute toxicity studies were performed using the oral route of administration.
A batch of 5 female and 5 male mice each was administered the test substance by oral route. […] Another batch of 5 female and 5 male served as control.
Observations were made three times on the day of dosing and twice daily thereafter for the remainder of 14 days or until reversible toxic signs or symptoms subsided. All gross visible toxic signs and symptoms were recorded. Body weights were recorded prior to dosing and weekly thereafter.

MOLT 4 = assay: MTT cytotoxicity assay, MOLT 4 leukemia; type: cell-based; conditions: Homo sapiens; for IC50: 24 h, Molt 4 Leukemia, read-out: ED50 values of cytotoxicity; for cytotoxicity at 1000 µM / cytotoxicity at 2500 µM / cytotoxicity at 4000 µM / cytotoxicity at 5000 µM / cytotoxicity at 10000 µM: MOLT 4 Leukemia, read-out: Percent cytotoxicity; for cytotoxicity at 1000 µM: 1.0 mM; for cytotoxicity at 2500 µM: 2.5 mM; for cytotoxicity at 4000 µM: 4 mM; for cytotoxicity at 5000 µM: 5 mM; for cytotoxicity at 10000 µM: 10 mM
Description: (§1) Briefly, a […] MTT cytotoxicity assay was performed, which is based on the principle of uptake of MTT (3-(4,5-dimethylthiazol-2-yl)-2,5-diphenyl tetrazolium bromide), a tetrazolium salt, by the metabolically active cells where it is metabolized by active mitochondria into a blue colored formazan product that is read spectrophoto-metrically. MTT was dissolved in phosphate buffered saline with a pH of 7.4 to obtain an MTT concentration of 5 mg/ml; the resulting mixture was filtered through a 0.22 micron filter to sterilize and remove a small amount of insoluble residue. For each type of tumor cell, 20,000 to 50,000 cells were seeded in a 96-well culture plate and incubated with the combination in a CO2 incubator for 24 hours. […] The assay was terminated after 24 hours by adding 100 ug (20 ul) of MTT to each well, then incubating for additional one hour, and finally adding 50 ul of 10% SDS-0.01N HCl to each well to lyse the cells and dissolve formazan. After incubating for one hour, the plate was read spectrophotometrically at 540 nm and the percentage cytotoxicity calculated.

U87MG = assay: MTT cytotoxicity assay, U87MG glioblastoma; type: cell-based; conditions: Homo sapiens, U-87 MG, 24 h, read-out: ED50 values of cytotoxicity
Description: as §1

KB = assay: MTT cytotoxicity assay, KB oral; type: cell-based; conditions: Homo sapiens, 24 h, read-out: ED50 values of cytotoxicity
Description: as §1

DU145 = assay: MTT cytotoxicity assay, DU145 prostate; type: cell-based; conditions: Homo sapiens; for cytotoxicity at 1000 µM: DU-145, 1.0 mM; for cytotoxicity at 1000 µM / cytotoxicity at 2500 µM / cytotoxicity at 4000 µM / cytotoxicity at 5000 µM / cytotoxicity at 10000 µM: read-out: Percent cytotoxicity; for cytotoxicity at 2500 µM: DU-145, 2.5 mM; for cytotoxicity at 4000 µM: DU-145, 4 mM; for cytotoxicity at 5000 µM: DU-145, 5 mM; for cytotoxicity at 10000 µM: DU-145, 10 mM; for IC50: DU-145, 24 h, read-out: ED50 values of cytotoxicity
Description: as §1

293 = assay: MTT cytotoxicity assay, 293 kidney; type: cell-based; conditions: Homo sapiens, HEK293, 24 h, read-out: ED50 values of cytotoxicity
Description: as §1

Hep2 = assay: MTT cytotoxicity assay, Hep2 larynx; type: cell-based; conditions: Homo sapiens, HEp-2, 24 h, read-out: ED50 values of cytotoxicity
Description: as §1

PA 1 = assay: MTT cytotoxicity assay, PA 1 ovary; type: cell-based; conditions: Homo sapiens; for IC50: 24 h, PA 1 Ovarian, read-out: ED50 values of cytotoxicity; for cytotoxicity at 1000 µM / cytotoxicity at 2500 µM / cytotoxicity at 4000 µM / cytotoxicity at 5000 µM / cytotoxicity at 10000 µM: PA 1 Ovary, read-out: Percent cytotoxicity; for cytotoxicity at 1000 µM: 1.0 mM; for cytotoxicity at 2500 µM: 2.5 mM; for cytotoxicity at 4000 µM: 4 mM; for cytotoxicity at 5000 µM: 5 mM; for cytotoxicity at 10000 µM: 10 mM
Description: as §1

L132 = assay: MTT cytotoxicity assay, L132 lung; type: cell-based; conditions: Homo sapiens; for cytotoxicity at 1000 µM: 1.0 mM; for cytotoxicity at 1000 µM / cytotoxicity at 2500 µM / cytotoxicity at 4000 µM / cytotoxicity at 5000 µM / cytotoxicity at 10000 µM: read-out: Percent cytotoxicity; for cytotoxicity at 2500 µM: 2.5 mM; for cytotoxicity at 4000 µM: 4 mM; for cytotoxicity at 5000 µM: 5 mM; for cytotoxicity at 10000 µM: 10 mM; for IC50: 24 h, read-out: ED50 values of cytotoxicity
Description: as §1

PTC = assay: MTT cytotoxicity assay, PTC colon; type: cell-based; conditions: Homo sapiens; for cytotoxicity at 1000 µM: 1.0 mM; for cytotoxicity at 1000 µM / cytotoxicity at 2500 µM / cytotoxicity at 4000 µM / cytotoxicity at 5000 µM / cytotoxicity at 10000 µM: read-out: Percent cytotoxicity; for cytotoxicity at 2500 µM: 2.5 mM; for cytotoxicity at 4000 µM: 4 mM; for cytotoxicity at 5000 µM: 5 mM; for cytotoxicity at 10000 µM: 10 mM; for IC50: 24 h, read-out: ED50 values of cytotoxicity
Description: as §1

INT 407 = assay: MTT cytotoxicity assay, INT 407 intestine; type: cell-based; conditions: Homo sapiens, 24 h, read-out: ED50 values of cytotoxicity
Description: as §1

Miapaca2 = assay: MTT cytotoxicity assay, Miapaca2 pancreas; type: cell-based; conditions: Homo sapiens; for cytotoxicity at 1000 µM: MIA PaCa-2, 1.0 mM; for cytotoxicity at 1000 µM / cytotoxicity at 2500 µM / cytotoxicity at 4000 µM / cytotoxicity at 5000 µM / cytotoxicity at 10000 µM: read-out: Percent cytotoxicity; for cytotoxicity at 2500 µM: MIA PaCa-2, 2.5 mM; for cytotoxicity at 4000 µM: MIA PaCa-2, 4 mM; for cytotoxicity at 5000 µM: MIA PaCa-2, 5 mM; for cytotoxicity at 10000 µM: MIA PaCa-2, 10 mM; for IC50: MIA PaCa-2, 24 h, read-out: ED50 values of cytotoxicity
Description: as §1

MCF7 = assay: MTT cytotoxicity assay, MCF7 breast; type: cell-based; conditions: Homo sapiens; for IC50: MCF7, 24 h, MCF 7 Breast, read-out: ED50 values of cytotoxicity; for cytotoxicity at 1000 µM / cytotoxicity at 2500 µM / cytotoxicity at 4000 µM / cytotoxicity at 5000 µM / cytotoxicity at 10000 µM: MCF7 breast, read-out: Percent cytotoxicity; for cytotoxicity at 1000 µM: 1.0 mM; for cytotoxicity at 2500 µM: 2.5 mM; for cytotoxicity at 4000 µM: 4 mM; for cytotoxicity at 5000 µM: 5 mM; for cytotoxicity at 10000 µM: 10 mM
Description: as §1

`COC(=O)C1CCC(=O)N1C(OC(C)=O)C(C)=O` (stereo not drawn) [MGC-4, N-(1-acetoxy-2-ketopropyl)-methylpyroglutamate] was tested, and the safe dose (Swiss albino mice) was 100 mg, the IC50 (MOLT 4) was 1.5 ± 0.2 mM and the cytotoxicity at 1000 µM (MOLT 4) was 36.9 ± 3.9%. It also gave a cytotoxicity at 2500 µM (MOLT 4) of 57.9 ± 3.1%, a cytotoxicity at 4000 µM (MOLT 4) of 78.9 ± 4.9% and a cytotoxicity at 5000 µM (MOLT 4) of 88.4 ± 7.5%. It also gave a cytotoxicity at 10000 µM (MOLT 4) of 85.9 ± 7.3%, an IC50 (U87MG) of 2.4 ± 0.5 mM and an IC50 (KB) of 1.55 ± 0.3 mM. The cytotoxicity at 1000 µM (DU145) was 28.9 ± 4.2%, the cytotoxicity at 2500 µM (DU145) was 58.9 ± 4.9% and the cytotoxicity at 4000 µM (DU145) was 82.1 ± 7.3%. For the same molecule, the cytotoxicity at 5000 µM (DU145) was 85.6 ± 7.3%, the cytotoxicity at 10000 µM (DU145) was 87.9 ± 7.3% and the IC50 (DU145) was 1.8 ± 0.3 mM. For the same molecule, the IC50 293 was 1.4 ± 0.1 mM, the IC50 (Hep2) was 3.2 ± 0.8 mM and the IC50 (PA 1) was 1.6 ± 0.2 mM. The cytotoxicity at 1000 µM (PA 1) was 28.9 ± 3.2%, the cytotoxicity at 2500 µM (PA 1) was 67.9 ± 4.9% and the cytotoxicity at 4000 µM (PA 1) was 87.9 ± 6.4%. For the same molecule, the cytotoxicity at 5000 µM (PA 1) was 88.6 ± 6.9%, the cytotoxicity at 10000 µM (PA 1) was 88 ± 6.9% and the cytotoxicity at 1000 µM (L132) was 0%. It also gave a cytotoxicity at 2500 µM (L132) of 0%, a cytotoxicity at 4000 µM (L132) of 0% and a cytotoxicity at 5000 µM (L132) of 4.9 ± 0.6%. It also gave a cytotoxicity at 10000 µM (L132) of 37.9 ± 3.5%, an IC50 (L132) greater than 5 mM and a cytotoxicity at 1000 µM (PTC) of 23.9 ± 3%. It also gave a cytotoxicity at 2500 µM (PTC) of 39 ± 5.2%, a cytotoxicity at 4000 µM (PTC) of 56.9 ± 5.9% and a cytotoxicity at 5000 µM (PTC) of 84.2 ± 7.4%. It also gave a cytotoxicity at 10000 µM (PTC) of 87.3 ± 6%, an IC50 (PTC) of 3.8 ± 1.1 mM and an IC50 (INT 407) of 2.3 ± 1.1 mM. It also gave a cytotoxicity at 1000 µM (Miapaca2) of 0%, a cytotoxicity at 2500 µM (Miapaca2) of 3.9 ± 0.5% and a cytotoxicity at 4000 µM (Miapaca2) of 46.8 ± 4.9%. It also gave a cytotoxicity at 5000 µM (Miapaca2) of 57.9 ± 5.9%, a cytotoxicity at 10000 µM (Miapaca2) of 79.4 ± 4.8% and an IC50 (Miapaca2) of 4.2 ± 1.1 mM. It also gave an IC50 (MCF7) greater than 5 mM, a cytotoxicity at 1000 µM (MCF7) of 0% and a cytotoxicity at 2500 µM (MCF7) of 0%. For the same molecule, the cytotoxicity at 4000 µM (MCF7) was 3.8 ± 0.4%, the cytotoxicity at 5000 µM (MCF7) was 23.8 ± 0.8% and the cytotoxicity at 10000 µM (MCF7) was 31.9 ± 2.9%.

Work on `CCOC(=O)C1CCC(=O)N1C(O)C(C)=O` (stereo not drawn) [MGC-7, N-(1-hydroxy-2-ketopropyl)-ethylpyroglutamate] yielded a safe dose (Swiss albino mice) of 100 mg, an IC50 (MOLT 4) of 1.5 ± 0.2 mM and a cytotoxicity at 1000 µM (MOLT 4) of 39.4 ± 2.7%. The cytotoxicity at 2500 µM (MOLT 4) was 58.5 ± 3.8%, the cytotoxicity at 4000 µM (MOLT 4) was 59.1 ± 4.3% and the cytotoxicity at 5000 µM (MOLT 4) was 64.3 ± 4.9%. The cytotoxicity at 10000 µM (MOLT 4) was 73.4 ± 2%, the IC50 (U87MG) was 1.84 ± 0.6 mM and the IC50 (KB) was 1.85 ± 0.6 mM. It also gave a cytotoxicity at 1000 µM (DU145) of 56 ± 5.9%, a cytotoxicity at 2500 µM (DU145) of 65 ± 2.9% and a cytotoxicity at 4000 µM (DU145) of 78.4 ± 6.9%. It also gave a cytotoxicity at 5000 µM (DU145) of 83 ± 4.9%, a cytotoxicity at 10000 µM (DU145) of 89 ± 6.1% and an IC50 (DU145) of 0.85 ± 0.3 mM. It also gave an IC50 293 of 3.1 ± 1.3 mM, an IC50 (Hep2) of 2.5 ± 1.1 mM and an IC50 (PA 1) of 1.2 ± 0.2 mM. For the same molecule, the cytotoxicity at 1000 µM (PA 1) was 45.6 ± 1.9%, the cytotoxicity at 2500 µM (PA 1) was 58.4 ± 4.7% and the cytotoxicity at 4000 µM (PA 1) was 65.5 ± 3.9%. It also gave a cytotoxicity at 5000 µM (PA 1) of 79.9 ± 5.2%, a cytotoxicity at 10000 µM (PA 1) of 84.9 ± 5.4% and a cytotoxicity at 1000 µM (L132) of 0%. It also gave a cytotoxicity at 2500 µM (L132) of 0%, a cytotoxicity at 4000 µM (L132) of 0% and a cytotoxicity at 5000 µM (L132) of 0%. For the same molecule, the cytotoxicity at 10000 µM (L132) was 0%, the IC50 (L132) was greater than 5 mM and the cytotoxicity at 1000 µM (PTC) was 34.3 ± 1.9%. It also gave a cytotoxicity at 2500 µM (PTC) of 54.3 ± 4.9%, a cytotoxicity at 4000 µM (PTC) of 65.9 ± 4.8% and a cytotoxicity at 5000 µM (PTC) of 78.2 ± 3.9%. The cytotoxicity at 10000 µM (PTC) was 82.2 ± 6.1%, the IC50 (PTC) was 2.4 ± 0.5 mM and the IC50 (INT 407) was 2.7 ± 1.2 mM. The cytotoxicity at 1000 µM (Miapaca2) was 0%, the cytotoxicity at 2500 µM (Miapaca2) was 28 ± 1.5% and the cytotoxicity at 4000 µM (Miapaca2) was 89 ± 2.3%. For the same molecule, the cytotoxicity at 5000 µM (Miapaca2) was 88 ± 4.1%, the cytotoxicity at 10000 µM (Miapaca2) was 85 ± 4.1% and the IC50 (Miapaca2) was 2.4 ± 1 mM. It also gave an IC50 (MCF7) of 2.8 ± 1.1 mM, a cytotoxicity at 1000 µM (MCF7) of 7 ± 1.3% and a cytotoxicity at 2500 µM (MCF7) of 10 ± 2.5%. For the same molecule, the cytotoxicity at 4000 µM (MCF7) was 69 ± 3.2%, the cytotoxicity at 5000 µM (MCF7) was 85 ± 4.5% and the cytotoxicity at 10000 µM (MCF7) was 83 ± 4.5%.
